Assay results taken from patent US20030134901A1, “Lipoxin compounds and their use in treating cell proliferative disorders” (priority 1993, published 2003).

How the values were obtained:
[1] = test system: peripheral blood monocytes; assay: LXA4 metabolism by peripheral blood monocytes; assay type: in vitro ADME, human; details: within 30 s
Method: (§1) Human PMN were obtained from healthy volunteers by gradient centrifugation of heparinized fresh venous blood (Böyum, A. ([…]) Scand. J. Clin. Lab. Invest. 21:77). HL-60 cells were seeded in RPMI supplemented with penicillin (100 U/ml), streptomycin (100 μ/ml), fetal bovine serum (10%) (Hyclone, Logan, Utah) and incubated (37° C. with 5% CO2 atmosphere) in plastic 250 ml flasks. Individual flasks containing […] HL-60 cells/ml were incubated in the presence or absence of phorbol 12-myristate 13-acetate (PMA) (10 or 16 nM, 24-27 h) and adherence was monitored for induction of macrophage-like phenotype as in Collins, S. J. (1987) Blood 70:1233. […]
(§2) Incubations with eicosanoids were stopped with cold methanol containing either PGB2 or 5-HETE as internal standards (5-HETE was used when 15-oxo-ETE was quantified). […] Formation of 15-oxo-ETE by 100,000 g supernatants (cf. Agins, A. P. et al. (1987) Agents Actions 21:397; Xun, C-Q. et al.(1991) Biochem. J. 279:553; and Sok, D-E. et al. (1988) Biochem. Biophys. Res. Commun. 156:524) was quantified after RP-HPLC using an ODS column (4.6 mm×25 cm) eluted with methanol/H2O/acetic acid (70:30:0.01, v/v/v) monitored at 280 nm with a flow rate of 1 ml/min. […] On-line spectra were recorded using a diode array detector (Hewlett-Packard 1040M series II) equipped with HPLC^3D ChemStation software (DOS series). […]

[2] = target: T1, 15-PGDH (Homo sapiens, UniProt P15428); assay: 15-HETE to 15-oxo-ETE dehydrogenase activity of 100,000 g supernatants of PMA-treated HL-60 cells; assay type: biochemical
T1 construct: 100,000 g supernatants prepared from PMA-treated HL-60 cells converted 15-HETE to 15-oxo-ETE; endogenous in cells; host or cells: HL-60 cells treated with PMA (16 nM, 24-72 h); freeze-thaw lysate, 100,000 g supernatant
T1 sequence (P15428 1-266): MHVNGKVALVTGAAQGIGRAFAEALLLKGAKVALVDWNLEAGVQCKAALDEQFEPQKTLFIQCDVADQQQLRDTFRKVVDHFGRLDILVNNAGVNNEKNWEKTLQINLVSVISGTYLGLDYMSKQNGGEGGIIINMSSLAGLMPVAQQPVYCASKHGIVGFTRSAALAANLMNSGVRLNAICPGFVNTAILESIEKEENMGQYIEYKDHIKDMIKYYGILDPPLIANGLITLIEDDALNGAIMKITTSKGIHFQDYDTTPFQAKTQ
Method: as §1, §2

Question: `CCCCC[C@H](O)/C=C/C=C\C=C\C=C\[C@@H](O)[C@@H](O)CCCC(=O)O` [LXA4, (5S, 6R, 15S)-trihydroxy-7E, 9E, 11Z, 13E-eicosatetraenoic acid] was tested. Which LXA4 converted [1] did it give?
Answer: > 60%

Question: What about the Ki ([2]; Lineweaver-Burke plots, S.E.M., n=6, read-out: Ki, competition for catalysis of 15-HETE) of the same molecule?
Answer: 8.2 ± 2.6 µM

Question: And the “block of 15-oxo-ETE formation” value ([2]; equimolar concentrations of LXA4 and 15-HETE)?
Answer: ≈ 50%
